In paper PMC6031871 (Bioorganic & medicinal chemistry, 2010):
Read-outs that look alike come from different tables or passages of the source. One block for each compound: values may come before it.

Assays:
Assay type in all cases: biochemical
HCPTP [1] = molecular target: T1, HCPTP (Homo sapiens, UniProt P24666); test: single concentration screen repeated with 0.01% Triton X-100; details: 0.01% Triton X-100 and reducing agents
T1 sequence (P24666 1-158): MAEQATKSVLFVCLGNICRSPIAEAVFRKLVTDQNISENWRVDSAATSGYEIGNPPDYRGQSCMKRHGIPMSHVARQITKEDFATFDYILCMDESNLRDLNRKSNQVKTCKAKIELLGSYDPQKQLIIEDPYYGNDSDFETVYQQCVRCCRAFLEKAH

HCPTP-B = molecular target: T2, HCPTP-B (Homo sapiens, UniProt P24666); test: pNPP phosphatase inhibition assay, HCPTP-B; details: for inhibition at 100 µM: pH 5, read-out: inhibition of HCPTP-B activity
T2 sequence (P24666 1-158 isoform P24666-2): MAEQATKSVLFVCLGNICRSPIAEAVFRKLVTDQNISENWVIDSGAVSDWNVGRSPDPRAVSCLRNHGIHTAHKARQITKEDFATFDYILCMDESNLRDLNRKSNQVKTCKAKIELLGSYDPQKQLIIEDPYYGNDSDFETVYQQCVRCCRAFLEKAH

HCPTP-A = molecular target: T3, HCPTP-A (Homo sapiens, UniProt P24666); test: pNPP phosphatase inhibition assay, HCPTP-A
T3 sequence (P24666 1-158): T1 sequence (P24666 1-158)

HCPTP [2] = molecular target: T4, HCPTP (Homo sapiens, UniProt P24666); test: pNPP single concentration screen, isoform not specified; details: pH 5, read-out: elevation of the activity of HCPTP
T4 sequence (P24666 2-158): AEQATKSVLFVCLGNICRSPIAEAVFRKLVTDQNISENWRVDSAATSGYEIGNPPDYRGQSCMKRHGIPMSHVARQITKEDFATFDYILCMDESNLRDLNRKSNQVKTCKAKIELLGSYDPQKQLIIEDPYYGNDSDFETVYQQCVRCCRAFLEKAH

[3] = IC50 HCPTP-B, pH 5 (Table I), pNPP substrate, 25 °C
[4] = IC50 HCPTP-A pH 5, pH 5 (Table II)
[5] = IC50 HCPTP-A, pH 5 (Table I), pNPP substrate, 25 °C
[6] = pH 5, read-out: inhibition of HCPTP-A activity, 100 μM compound, pH 5
[7] = pH 7, read-out: reduction of the activity of HCPTP-A, 100 μM compound, pH 7
[8] = IC50 HCPTP-A pH 5 (dash class), pH 5 (Table II), dash entries
[9] = pH 5, read-out: inhibition of HCPTP-A activity
[10] = pH 7, read-out: reduction of the activity of HCPTP-A
[11] = read-out: IC50 HCPTP-A pH 7, pH 7 (Table II)

Compound: CC1CN(CC(N)C(=O)O)C(=O)NC1=O (stereo not shown) [Compound 151831]
inhibition at 100 µM (HCPTP-A; [7]): ≥ 10%

Compound: O=C(O)CC1NCc2cc3ccccc3nc21 (stereo not shown) [Compound 141566]
inhibition at 100 µM (HCPTP-B): ≥ 10%
IC50 (HCPTP-A; [8]): > 100 µM
IC50 (HCPTP-A; IC50 HCPTP-A pH 7, pH 7 (Table II)): 4.8 µM
inhibition at 100 µM (HCPTP-A; [6]): ≥ 10%

Compound: C[C@]12CC[C@@H]3c4ccc(O)cc4CC[C@H]3[C@@H]1C/C(=N\O)[C@@H]2O [Compound 112737]
inhibition at 100 µM (HCPTP-A; [7]): ≥ 10%

Compound: NC(Cc1ccccc1)P(=O)(O)O (stereo not shown) [Compound 30080]
IC50 (HCPTP-B; [3]): 139 µM
inhibition at 100 µM (HCPTP-B): ≥ 10%
IC50 (HCPTP-A; [4]): 223 µM
IC50 (HCPTP-A; IC50 HCPTP-A pH 7 (dash class), pH 7 (Table II), dash entries): > 100 µM
IC50 (HCPTP-A; [5]): 223 µM
inhibition at 100 µM (HCPTP-A; [9]): ≥ 10%
inhibition at 100 µM (HCPTP-A; [10]): ≥ 10%

Compound: C[S+](=N)([O-])CCP(=O)(O)O (stereo not shown) [Compound 359098]
inhibition at 100 µM (HCPTP-A; [10]): ≥ 10%

Compound: NC(Cc1cc(Br)c(O)c(Br)c1)C(=O)O (stereo not shown) [Compound 210786]
activation at 100 µM (HCPTP [2]): ≥ 10%
IC50 (HCPTP-A; [8]): > 100 µM
IC50 (HCPTP-A; [11]): 4.6 µM

Compound: CCc1ccc(CCC(=O)O)nc1 [Compound 35989]
reduction of the activity of HCPTP-A (HCPTP-A; 100 μM compound, pH 7): at least 10%

Compound: CC[C@H]1CN2CCc3cc(OC)c(OC)cc3C2C[C@@H]1C[C@@H]1NCCc2c1[nH]c1ccc(O)cc21 (stereo partly shown) [Compound 131547]
inhibition at 100 µM (HCPTP-A; [10]): ≥ 10%

Compound: NC(c1ccccc1)P(=O)(O)O (stereo not shown) [Compound 133811]
inhibition at 100 µM (HCPTP-B): ≥ 10%
inhibition at 100 µM (HCPTP-A; [6]): ≥ 10%

Compound: NC1CCCCC1P(=O)(O)O (stereo not shown) [Compound 320308]
inhibition at 100 µM (HCPTP-B): ≥ 10%
inhibition at 100 µM (HCPTP-A; [9]): ≥ 10%

Compound: Cc1ncc(OP(=O)(O)O)c(C)c1O [Compound 29870]
inhibition at 100 µM (HCPTP-B): ≥ 10%
inhibition at 100 µM (HCPTP-A; [6]): ≥ 10%

Compound: CC12CCC(=O)C=C1CCC1C2CCC2(C)C(C(=O)Cn3cnc4c(=S)nc[nH]c43)CCC12 (stereo not shown) [Compound 114792]
inhibition at 100 µM (HCPTP-B): ≥ 10%
inhibition at 100 µM (HCPTP-A; [6]): ≥ 10%

Compound: CC12CC(=O)C3C(CCC4=CC(=O)CCC43C)C1CC=C2CC(=O)O (stereo not shown) [Compound 86008]
inhibition at 100 µM (HCPTP-A; [7]): ≥ 10%

Compound: Nc1nc(N)c(N=Nc2ccc([As](=O)(O)O)c(O)c2)c(N)n1 [Compound 117281]
inhibition at 100 µM (HCPTP-A; [10]): ≥ 10%

Compound: C[C@]12CC[C@@H]3c4ccc(OP(=O)(O)O)cc4CC[C@H]3[C@@H]1CCC2=O [Compound 18320]
inhibition at 100 µM (HCPTP-A; [7]): ≥ 10%

Compound: CC1OC(OC2C(O)C(O)C(O)C(O)C2O)C(N)CC1NC(=N)C(=O)O (stereo not shown) [Compound 100858]
inhibition at 100 µM (HCPTP-A; [7]): ≥ 10%

Compound: O=C(O)/C(Cc1ccnc2ccccc12)=N/O [Compound 85359]
inhibition at 100 µM (HCPTP-B): ≥ 10%
IC50 (HCPTP-A; [8]): > 100 µM
inhibition at 100 µM (HCPTP-A; [6]): ≥ 10%
IC50 (HCPTP-A; [11]): 72 µM

Compound: Nc1nc(-c2ccc3ccccc3c2)cc(-c2cc(-c3ccc4ccccc4c3)nc(N)n2)n1 [Compound 371878]
inhibition at 100 µM (HCPTP-A; [7]): ≥ 10%

Further lines, with some results ahead:

IC50 (HCPTP-B; [3]): 3.9 µM
inhibition at 100 µM (HCPTP-B): ≥ 10%
IC50 (HCPTP-A; [4]): 5.5 µM
IC50 (HCPTP-A; [5]): 5.5 µM
inhibition at 100 µM (HCPTP-A; [6]): ≥ 10%
Compound: O=S(=O)(O)c1ccc2c(/N=N/c3c(O)ccc4ccccc34)cccc2c1 [Compound 45576]
level of inhibition in the presence of detergent (HCPTP [1]): maintained an approximately constant level of inhibition

inhibition at 100 µM (HCPTP-B): ≥ 10%
inhibition at 100 µM (HCPTP-A; [6]): ≥ 10%
Compound: NC(Cc1ccc2oc3cc(=O)c4ccccc4c-3nc2c1)C(=O)O (stereo not shown) [Compound 643735]

inhibition at 100 µM (HCPTP-A; [7]): ≥ 10%
Compound: Cn1c(=O)c2[nH]c(CCC(=O)O)nc2n(C)c1=O [Compound 36534]

activation at 100 µM (HCPTP [2]): ≥ 10%
Compound: Oc1cc(O)c2c(c1)OC(c1ccc(O)c(O)c1)C(O)C2c1c(O)cc(O)c2c1OC(c1ccc(O)c(O)c1)C(O)C2 (stereo not shown) [Compound 143099]

inhibition at 100 µM (HCPTP-A; [7]): ≥ 10%
Compound: Nc1cncc(Nc2ccc(S(N)(=O)=O)cc2)n1 [Compound 135784]

IC50 (HCPTP-B; [3]): 4.5 µM
inhibition at 100 µM (HCPTP-B): ≥ 10%
IC50 (HCPTP-A; [4]): 5.5 µM
IC50 (HCPTP-A; [5]): 5.5 µM
inhibition at 100 µM (HCPTP-A; [6]): ≥ 10%
IC50 (HCPTP-A; [11]): 3.6 µM
Compound: O=C1C2=C(CC=CC2)C(=O)c2c(Nc3ccc(S(=O)(=O)O)cc3)ccc(Nc3ccccc3)c21 [Compound 128437]
level of inhibition in the presence of detergent (HCPTP [1]): maintained an approximately constant level of inhibition

IC50 (HCPTP-A; [8]): > 100 µM
IC50 (HCPTP-A; [11]): 4 µM
Compound: O=C(O)C1CSC2(CCN(c3ccccc3)CC2)N1 (stereo not shown) [Compound 319095]
level of inhibition in the presence of detergent (HCPTP [1]): maintained an approximately constant level of inhibition

IC50 (HCPTP-B; read-out: IC50 HCPTP-B, general phosphatase inhibitor, pH not stated): 61 µM
IC50 (HCPTP-A; read-out: IC50 HCPTP-A, general phosphatase inhibitor, pH not stated): 11 µM
Compound: [O]=[V]([OH])([OH])[OH] [orthovanadate, reference compound]

inhibition at 100 µM (HCPTP-A; [7]): ≥ 10%
Compound: N=C(N)NC(=N)Nc1ccc(S(=O)(=O)O)cc1 [Compound 17580]

activation at 100 µM (HCPTP [2]): ≥ 10%
IC50 (HCPTP-A; [8]): > 100 µM
IC50 (HCPTP-A; [11]): 51 µM
Compound: NC(Cc1c[nH]c2cc([N+](=O)[O-])ccc12)C(=O)O (stereo not shown) [Compound 65763]

inhibition at 100 µM (HCPTP-A; [7]): ≥ 10%
Compound: NC(Cc1c[nH]c2ccc([N+](=O)[O-])cc12)C(=O)O (stereo not shown) [Compound 58612]

inhibition at 100 µM (HCPTP-A; [7]): ≥ 10%
Compound: NC(c1c[nH]c2ccccc12)P(=O)(O)O (stereo not shown) [Compound 669581]

inhibition at 100 µM (HCPTP-B): ≥ 10%
inhibition at 100 µM (HCPTP-A; [6]): ≥ 10%
inhibition at 100 µM (HCPTP-A; [7]): ≥ 10%
Compound: N=C(Cc1ccccc1)NCC(=O)O [Compound 27895]

activation at 100 µM (HCPTP [2]): ≥ 10%
inhibition at 100 µM (HCPTP-A; [7]): ≥ 10%
Compound: CC(=O)Nc1ccc(-c2ccc3[nH]c(=O)cc(C)c3c2)cc1 [Compound 109816]
